We go through 23 molecules from patent US12630563B2, “Macrocyclic RIP2-kinase inhibitors” (Oncodesign S.A., priority 2020, dated 2026).

In data set [1] the target is T1, recombinant hRIPK2 protein (kinase domain aa 1-299-His-tagged) (Homo sapiens, UniProt O43353).
T1 construct: kinase domain aa 1-299-His-tagged; purchased Life Technologies PR7829A
The experiment in a line: RIPK2 AlphaLISA assay (displacement of bead-bound CZC-8004 from hRIPK2). In kind it is binding. To be noted: recombinant hRIPK2 kinase domain 10 nM, 2 h at 23° C. The essentials:
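His-tagged kinase domain (10 nM, as diluted) was mixed with compound (0.8% DMSO), acceptor beads bearing the probe CZC-8004 and Ni2+ donor beads. After 2 h at 23 °C, AlphaLISA signal was read. Loss of signal reflects displacement of the probe from RIPK2.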
On the technique in general: Bead proximity is the source of the signal in Alpha formats.

Data set [2] in a line: Human Clint, microsomal metabolic stability (Assay B). The class given is in vitro ADME. The following applies: pooled liver microsomes 0.5 mg/mL, 0.5 μM compound, NADPH. Here is the method: Human Clint protocol: Pooled liver microsomes (Sekisui Xenotech) were diluted at 0.5 mg/mL in 50 mM phosphate buffer, pH 7.4 then pre-incubated with 0.5 μM […] for 7 min at 37° C. The reactions were initiated by adding prewarmed cofactor (0.44 mM NADPH). Aliquots of samples were taken at 0, 5, 10, 20 and 45 min and the reactions stopped by addition of cold acetonitrile containing an internal standard. Samples were centrifuged at 3000 g for 10 min at 4° C. and then supernatants were analyzed by LC/MS/MS for the amount of parent compound remaining.

In a further data set the target is T2, hERG potassium channel (Homo sapiens, UniProt Q12809).
T2 construct: host or cells: HEK (hERG-HEK stably transfected cell line)
The data set is described as follows: hERG q-patch assay (Assay C, Sophion Qube automated electrophysiology). In kind it is cell-based. To be noted: read-out: Assay C: hERG q-patch inhibition IC50. Here is the method:
hERG q-patch assay protocol: The potential for test compound to inhibit the hERG potassium channel was determined using the Charles River ChanTest® hERG-HEK stably transfected cell line on the Sophion Qube automated electrophysiology platform. The assay was performed at room temperature and recordings of the hERG tail current from a population of cells were made using multi-hole QChips.
Background: The hERG channel carries a current that helps repolarise heart muscle cells.

As usually defined, the IC50 is the concentration needed to halve the response being measured.

T1 sequence (O43353 1-299): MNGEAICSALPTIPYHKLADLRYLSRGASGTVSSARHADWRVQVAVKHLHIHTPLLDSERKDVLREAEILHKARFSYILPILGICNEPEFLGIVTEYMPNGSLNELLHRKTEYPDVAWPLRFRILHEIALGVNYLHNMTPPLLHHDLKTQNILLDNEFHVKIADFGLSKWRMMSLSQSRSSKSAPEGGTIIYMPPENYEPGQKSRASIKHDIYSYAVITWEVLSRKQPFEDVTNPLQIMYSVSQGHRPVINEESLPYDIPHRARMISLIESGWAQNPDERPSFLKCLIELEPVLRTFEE
T2 sequence (Q12809 whole entry): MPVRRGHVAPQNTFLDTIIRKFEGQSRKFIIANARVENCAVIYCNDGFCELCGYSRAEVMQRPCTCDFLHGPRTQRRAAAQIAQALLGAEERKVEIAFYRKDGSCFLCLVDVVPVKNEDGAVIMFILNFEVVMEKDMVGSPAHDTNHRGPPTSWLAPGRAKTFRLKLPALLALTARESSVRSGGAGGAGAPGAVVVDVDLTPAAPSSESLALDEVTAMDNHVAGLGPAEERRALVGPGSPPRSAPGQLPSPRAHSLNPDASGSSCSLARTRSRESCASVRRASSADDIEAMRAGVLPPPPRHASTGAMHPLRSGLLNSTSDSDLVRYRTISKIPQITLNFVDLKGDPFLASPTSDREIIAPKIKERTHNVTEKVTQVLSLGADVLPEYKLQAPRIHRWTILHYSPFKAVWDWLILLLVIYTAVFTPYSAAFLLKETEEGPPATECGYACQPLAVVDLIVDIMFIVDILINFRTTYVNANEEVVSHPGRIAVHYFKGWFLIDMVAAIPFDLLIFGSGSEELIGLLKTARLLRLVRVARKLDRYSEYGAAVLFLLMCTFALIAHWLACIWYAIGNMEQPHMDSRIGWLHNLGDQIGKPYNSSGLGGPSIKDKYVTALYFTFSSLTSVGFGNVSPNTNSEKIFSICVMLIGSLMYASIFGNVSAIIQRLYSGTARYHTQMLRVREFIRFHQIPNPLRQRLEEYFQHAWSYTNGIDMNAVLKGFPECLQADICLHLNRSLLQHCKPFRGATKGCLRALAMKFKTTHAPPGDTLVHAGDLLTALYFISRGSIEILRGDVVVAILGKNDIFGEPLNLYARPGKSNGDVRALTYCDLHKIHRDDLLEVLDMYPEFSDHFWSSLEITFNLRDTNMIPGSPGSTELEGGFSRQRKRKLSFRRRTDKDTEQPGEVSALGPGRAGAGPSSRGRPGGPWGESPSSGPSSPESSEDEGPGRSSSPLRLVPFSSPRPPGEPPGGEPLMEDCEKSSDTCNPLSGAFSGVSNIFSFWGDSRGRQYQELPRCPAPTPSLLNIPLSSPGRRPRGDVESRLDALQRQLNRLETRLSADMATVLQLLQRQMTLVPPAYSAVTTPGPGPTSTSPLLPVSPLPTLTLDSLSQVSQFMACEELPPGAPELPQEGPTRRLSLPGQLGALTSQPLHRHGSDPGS

In the case of `COc1cn2ncc3c2nc1OC[C@@H]1C[C@@H](OC)C(=O)N1CCNc1cc(F)cc-3c1` [Example 1, (12R,14S)-4-fluoro-12,18-dimethoxy-16-oxa-7,10,20,21,24-pentaazapentacyclo[15.5.2.1^2,6.0^1°,^14.0^2°,^23]pentacosa-1(23),2(25),3,5,17(24),18,21-heptaen-11-one], the results for the IC50 (in data set [1]; on hERG potassium channel) were less than 0.01 µM and greater than 10 µM, respectively. Also, the “Assay B: Human Clint (hCl)” value in data set [2] was “+++ (+++ indicates hCl equal or below 5 ug/min/mg prot)”.
Regarding `CO[C@@H]1C[C@H]2COc3ccn4ncc(c4n3)-c3cc(cc(C(=O)N(C)OC)c3)NCCN2C1=O` [Example 55, (12R,14S)—N,12-dimethoxy-N-methyl-11-oxo-16-oxa-7,10,20,21,24-pentaazapentacyclo[15.5.2.1^2,6.0^1°,^14.0^2°,^23]pentacosa-1(23),2,4,6(25),17(24),18,21-heptaene-4-carboxamide], the IC50 in data set [1] was less than 0.01 µM; on hERG potassium channel it was greater than 10 µM. Also, the “Assay B: Human Clint (hCl)” value in data set [2] is given as “+++ (+++ indicates hCl equal or below 5 ug/min/mg prot)”.
Turning to `CO[C@@H]1C[C@H]2COc3nc4c(cnn4cc3C)-c3cc(cc(C(=O)N(C)OC)c3)NCCN2C1=O` [Example 63, (12R,14S)-N,12-dimethoxy-N,18-dimethyl-11-oxo-16-oxa-7,10,20,21,24-pentaazapentacyclo[15.5.2.1^2,6.0^10,^14.0^20,^23]pentacosa-1(23),2,4,6(25),17(24),18,21-heptaene-4-carboxamide], the 50% inhibitory concentration (IC50) in data set [1] is less than 0.01 µM.
On the same count and under the same terms, as for `CO[C@@H]1C[C@H]2COc3nc4c(cnn4cc3C)-c3cc(cc(OCc4cccnc4)c3)NCCN2C1=O` [Example 49, (12R,14S)-12-methoxy-18-methyl-4-(pyridin-3-ylmethoxy)-16-oxa-7,10,20,21,24-pentaazapentacyclo[15.5.2.1^2,6.0^10,^14.0^20,^23]pentacosa-1(23),2,4,6(25),17(24),18,21-heptaen-11-one], the figure is 0.01 to 0.1 µM; as for `COCCO[C@@H]1C[C@H]2COc3ccn4ncc(c4n3)-c3cc(cc(OC(C)C)c3)NCCN2C1=O` (racemic) [Example 113, (12R,14S)-12-(2-methoxyethoxy)-4-(propan-2-yloxy)-16-oxa-7,10,20,21,24-pentaazapentacyclo[15.5.2.1^2,6.0^10,^14.0^20,^23]pentacosa-1(23),2(25),3,5,17(24),18,21-heptaen-11-one], 0.01 to 0.1 µM; as for `COc1cc2cc(c1)-c1cnn3cc(OC)c(nc13)OC[C@@H]1C[C@@H](O)C(=O)N1CCN2` [Example 143, (12R,14S)-12-hydroxy-4,18-dimethoxy-16-oxa-7,10,20,21,24-pentaazapentacyclo[15.5.2. 1^2,6.0^10,^14.0^20,^23]pentacosa-1(23),2(25),3,5,17(24),18,21-heptaen-11-one], less than 0.01 µM.
Take `COCCO[C@@H]1C[C@H]2COc3ccn4ncc(c4n3)-c3cc(cc(C(C)=O)c3)NCCN2C1=O` [Example 98, (12R,14S)-4-acetyl-12-(2-methoxyethoxy)-16-oxa-7,10,20,21,24-pentaazapentacyclo[15.5.2.1^2,6.0^10,^14.0^20,^23]pentacosa-1(23),2,4,6(25),17(24),18,21-heptaen-11-one]: in data set [1], the IC50 is less than 0.01 µM.
Take `C#Cc1cc2cc(c1)-c1cnn3ccc(nc13)OC[C@@H]1C[C@@H](OCC)C(=O)N1CCN2` [Example 72, (12R,14S)-12-ethoxy-4-ethynyl-16-oxa-7,10,20,21,24-pentaazapentacyclo[15.5. 2.1^2,6.0^10,^14.0^20,^23]pentacosa-21-heptaen-11-one]: in data set [1], the IC50 is less than 0.01 µM.
With `COCCO[C@@H]1C[C@H]2COc3nc4c(cnn4cc3OCC3(C)COC3)-c3cc(cc(OC)c3)NCCN2C1=O` [Example 122], in data set [1], the IC50 is less than 0.01 µM.
On to `CCO[C@@H]1C[C@H]2COc3ccn4ncc(c4n3)-c3cc(cc(C(=O)NC)c3)NCCN2C1=O` [Example 59, (12R,14S)-12-ethoxy-N-methyl-11-oxo-16-oxa-7,10,20,21,24-pentaazapentacyclo[15.5.2.1^2,6.0^10,^14.0^20,^23]pentacosa-1(23),2(25),3,5,17(24),18,21-heptaene-4-carboxamide], for which the IC50 in data set [1] was less than 0.01 µM.
On the same count and under the same terms, the figure for `COCCO[C@@H]1C[C@H]2COc3nc4c(cnn4cc3OCC3COC3)-c3cc(cc(OC)c3)NCCN2C1=O` [Example 144] is less than 0.01 µM; for `CO[C@@H]1C[C@H]2COc3ccn4ncc(c4n3)-c3cc(cc(OCc4cnn(C)c4)c3)NCCN2C1=O` [Example 46, (12R,14S)-12-methoxy-4-[(1-methyl-1H-pyrazol-4-yl)methoxy]-16-oxa-7,10,20,21,24-pentaazapentacyclo[15.5.2.1^2,6.0^10,^14.0^20,^23]pentacosa-1(23),2,4,6(25),17(24),18,21-heptaen-11-one] it is 0.01 to 0.1 µM; for `CCN(C)C(=O)c1cc2cc(c1)-c1cnn3ccc(nc13)OC[C@@H]1C[C@@H](OC)C(=O)N1CCN2` [Example 56, (12R,14S)-N-ethyl-12-methoxy-N-methyl-11-oxo-16-oxa-7,10,20,21,24-pentaazapentacyclo[15.5.2.1^2,6.0^10,^14.0^20,^23]pentacosa-1(23),2,4,6(25),17(24),18,21-heptaene-4-carboxamide] it is less than 0.01 µM.
In the case of `CO[C@@H]1C[C@H]2COc3nc4c(cnn4cc3F)-c3cc(F)cc(c3)NCCN2C1=O` [Example 34, (12R,14S)-4,18-difluoro-12-methoxy-16-oxa-7,10,20,21,24-pentaazapentacyclo[15.5.2.1^2,6.0^10,^14.0^20,^23]pentacosa-1(23),2(25),3,5,17(24),18,21-heptaen-11-one], in data set [1], the concentration for half-maximal inhibition (IC50) was less than 0.01 µM.
Regarding `C=Cc1cc2cc(c1)-c1cnn3ccc(nc13)OC[C@@H]1C[C@@H](OCC)C(=O)N1CCN2` [Example 102, (12R,14S)-4-ethenyl-12-ethoxy-16-oxa-7,10,20,21,24-pentaazapentacyclo[15.5.2.1^2,6.0^1°,^14.0^2°,^23]pentacosa-1(23),2,4,6(25),17(24),18,21-heptaen-11-one], the IC50 in data set [1] is less than 0.01 µM.
Take `[2H]C([2H])([2H])Oc1cn2ncc3c2nc1OC[C@@H]1C[C@@H](OC)C(=O)N1CCNc1cc(F)cc-3c1` [Example 92, (12R,14S)-4-fluoro-18-(^2H3)methoxy-12-methoxy-16-oxa-7,10,20,21,24-pentaazapentacyclo[15.5.2.1^2,6.0^1°,^14.0^2°,^23]pentacosa-1(23),2(25),3,5,17(24),18,21-heptaen-11-one]: in data set [1], the IC50 is less than 0.01 µM.
The same measure, in the same setting: as for `COCCO[C@@H]1C[C@H]2COc3nc4c(cnn4cc3OC)-c3cc(C#N)cc(c3)NCCN2C1=O` [Example 145, (12R,14S)-18-methoxy-12-(2-methoxyethoxy)-11-oxo-16-oxa-7,10,20,21,24-pentaazapentacyclo[15.5.2.1^2,6.0^10,^14.0^20,^23]pentacosa-1(23),2,4,6(25),17(24),18,21-heptaene-4-carbonitrile], the figure is less than 0.01 µM; as for `CO[C@@H]1CC2(C)COc3ccn4ncc(c4n3)-c3cc(F)cc(c3)NCCN2C1=O` (stereo partly drawn) [Example 40], less than 0.01 µM; as for `COCCO[C@@H]1C[C@H]2COc3ccn4ncc(c4n3)-c3cc(Cl)cc(c3)NCCN2C1=O` (racemic) [Example 116, (12R,14S)-4-chloro-12-(2-methoxyethoxy)-16-oxa-7,10,20,21,24-pentaazapentacyclo[15.5.2.1^2,6.0^10,^14.0^20,^23]pentacosa-1(23),2,4,6(25),17(24),18,21-heptaen-11-one], less than 0.01 µM.
Regarding `C#Cc1cc2cc(c1)-c1cnn3cc(OC)c(nc13)OC[C@@H]1C[C@@H](OCCOC)C(=O)N1CCN2` [Example 146, (12R,14S)-4-ethynyl-18-methoxy-12-(2-methoxyethoxy)-16-oxa-7,10,20,21,24-pentaazapentacyclo[15.5.2.1^2,6.0^1°,^14.0^2°,^23]pentacosa-1(23),2,4,6(25),17(24),18,21-heptaen-11-one], the IC50 in data set [1] is less than 0.01 µM.
For `O=C1[C@H](O)C[C@H]2COc3ccn4ncc(c4n3)-c3cc(cc(-n4cccn4)c3)NCCN12` [Example 82, (12R,14S)-12-hydroxy-4-(1H-pyrazol-1-yl)-16-oxa-7,10,20,21,24-pentaazapentacyclo[15.5.2. 1^2,6.0^10,^14.0^20,^23]pentacosa-1(23),2(25),3,5,17(24),18,21-heptaen-11-one], the IC50 in data set [1] was less than 0.01 µM.
As to `COCCO[C@@H]1C[C@H]2COc3nc4c(cnn4cc3OC)-c3cc(cc(OC(C)C)c3)NCCN2C1=O` [Example 131, (12R,14S)-18-methoxy-12-(2-methoxyethoxy)-4-(propan-2-yloxy)-16-oxa-7,10,20,21,24-pentaazapentacyclo[15.5.2.1^2,6.0^10,^14.0^20,^23]pentacosa-1(23),2,4,6(25),17(24),18,21-heptaen-11-one], the IC50 in data set [1] is less than 0.01 µM.
The same measure, in the same setting: as for `COCCO[C@@H]1C[C@H]2COc3nc4c(cnn4cc3OC3COC3)-c3cc(cc(OC)c3)NCCN2C1=O` [Example 138, (12R,14S)-4-methoxy-12-(2-methoxyethoxy)-18-(oxetan-3-yloxy)-16-oxa-7,10,20,21,24-pentaazapentacyclo[15.5.2. 1^2,6.0^10,^14.0^20,^23]pentacosa-1(23),2,4,6(25),17(24),18,21-heptaen-11-one], the figure is less than 0.01 µM.
